Values quoted from earlier work as cited in patent US8435963B2, “Weight loss compositions and uses thereof” (priority 2008, dated 2013).
Counter-ions that a name gives are not always drawn. Like-named read-outs stand apart in the source and are kept apart here.

half-life (human, in vivo) [h]	half-life (humans) [h]	SMILES
8 to 11	–	COC(=O)[C@@H]1[C@H]2C[C@H]3c4[nH]c5cc(O)ccc5c4CCN3C[C@@H]2CC[C@@H]1O [11-Hydroxy yohimbine]
–	2.5	COC(=O)[C@@H]1[C@H]2C[C@H]3c4[nH]c5ccccc5c4CCN3C[C@@H]2CC[C@@H]1O [yohimbine HCl, 17α-hydroxy-yohimban-16α-carboxylic acid methyl ester]
